Here are results for six molecules from ChEMBL document CHEMBL1201862, “PubChem BioAssay data set” (2004).

Activity calls are given as the source filed them.

The target in experiment [1] is T1, DNA repair and recombination protein RAD54-like (Homo sapiens, UniProt Q92698).
T1 sequence (Q92698 whole entry): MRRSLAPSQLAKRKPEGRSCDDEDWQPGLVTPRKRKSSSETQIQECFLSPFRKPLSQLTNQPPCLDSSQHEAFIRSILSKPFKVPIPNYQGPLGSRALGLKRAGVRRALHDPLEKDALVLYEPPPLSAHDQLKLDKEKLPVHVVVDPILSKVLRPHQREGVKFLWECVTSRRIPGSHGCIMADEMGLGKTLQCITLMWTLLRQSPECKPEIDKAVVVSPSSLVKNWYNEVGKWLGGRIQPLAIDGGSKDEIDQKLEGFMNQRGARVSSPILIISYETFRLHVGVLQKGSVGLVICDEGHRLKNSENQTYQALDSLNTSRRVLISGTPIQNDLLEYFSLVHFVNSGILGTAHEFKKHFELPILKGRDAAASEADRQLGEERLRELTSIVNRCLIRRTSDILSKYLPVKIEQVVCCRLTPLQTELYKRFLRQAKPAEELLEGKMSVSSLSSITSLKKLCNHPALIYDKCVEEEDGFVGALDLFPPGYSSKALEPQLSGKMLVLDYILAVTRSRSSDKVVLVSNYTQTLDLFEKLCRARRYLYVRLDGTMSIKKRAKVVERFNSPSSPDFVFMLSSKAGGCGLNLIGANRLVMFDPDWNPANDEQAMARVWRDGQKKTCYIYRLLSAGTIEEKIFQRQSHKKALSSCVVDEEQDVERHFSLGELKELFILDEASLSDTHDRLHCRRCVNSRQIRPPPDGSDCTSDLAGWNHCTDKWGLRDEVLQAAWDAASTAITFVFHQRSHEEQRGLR
Briefly: inhibitors of human RAD54 branch migration, confirmation, biochemical, fluorescence, cherry-picked samples, dose series (AID 651657). It is filed as functional.

Experiment [2] can be described thus: MDA-MB-231 cell growth inhibition, dose response, cytotoxicity control for RAD54 inhibitor project, CellTiter-Glo luminescence, cherry-pick (AID 651692). Format: functional, cell-based.
Experiment [3] concerns the target T2, DNA repair protein RAD52 homolog (Homo sapiens, UniProt P43351).
T2 sequence (P43351 whole entry): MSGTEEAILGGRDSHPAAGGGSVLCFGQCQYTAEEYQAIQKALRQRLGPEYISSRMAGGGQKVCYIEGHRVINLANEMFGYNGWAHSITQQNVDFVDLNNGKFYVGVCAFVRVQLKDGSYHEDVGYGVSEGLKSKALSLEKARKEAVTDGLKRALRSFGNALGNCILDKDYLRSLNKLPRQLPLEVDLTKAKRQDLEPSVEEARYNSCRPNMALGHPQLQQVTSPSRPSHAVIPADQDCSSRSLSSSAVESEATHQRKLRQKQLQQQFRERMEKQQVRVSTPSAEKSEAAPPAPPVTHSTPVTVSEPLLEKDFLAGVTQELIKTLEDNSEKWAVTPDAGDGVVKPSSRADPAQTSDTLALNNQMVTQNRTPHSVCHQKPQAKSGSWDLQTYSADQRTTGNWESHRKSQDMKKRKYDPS
It is filed as functional, biochemical.

Experiment [4] can be described thus: Luminescence-based counterscreen assay for KLF5 inhibitors: dose response cell-based high throughput screening assay to identify cytotoxic compounds using the IEC-6 intestinal epithelial cell line. [Related pubchem assays: 1700 (Primary screen.), 1834 (Confirmation screen.), 1858 (Summary AID.), 1905 (Counterscreen.)]. It is filed as functional.
Experiment [5] in a line: Luminescence Cell-Based Dose Retest to Confirm Inhibitors of Cancer Stem Cells. [Related pubchem assays (depositor defined):AID2717, AID2721]. The following applies: Homo sapiens. Format: functional.
The test system of experiment [6] is INS1. Description: beta cell apoptosis inhibitors, cytokine rescue, dose response, luminescence, retest (AID 449756).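 Note: cell death triggered by IL-1 beta plus TNF-alpha plus IFN-gamma mixture; protective hits raise ATP signal compared with cytokine alone wells.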 Format: functional, cell-based. The following applies: Rattus norvegicus.
Experiment [7] can be described thus: cytotoxicity in NIH3T3 fibroblasts, dose response, cytotoxicity control for HSP40 inhibitor project, cell-based, CellTiter-Glo luminescence, cherry-pick, set 2 (AID 624265). It is filed as functional. In general terms: ATP-based viability assays read luminescence as a measure of living cells.
Experiment [8] has as its target T3, Sentrin-specific protease 1 (Homo sapiens, UniProt Q9P0U3). Briefly: Dose response confirmation of small molecule inhibitors of the catalytic domain of the SUMO protease, SENP1 in a FRET assay. Particulars: read-out: IC50_Mean. Format: functional.
Experiment [9] deals with T4, Zinc finger protein mex-5 (Caenorhabditis elegans, UniProt Q9XUB2).
T4 sequence (Q9XUB2 whole entry): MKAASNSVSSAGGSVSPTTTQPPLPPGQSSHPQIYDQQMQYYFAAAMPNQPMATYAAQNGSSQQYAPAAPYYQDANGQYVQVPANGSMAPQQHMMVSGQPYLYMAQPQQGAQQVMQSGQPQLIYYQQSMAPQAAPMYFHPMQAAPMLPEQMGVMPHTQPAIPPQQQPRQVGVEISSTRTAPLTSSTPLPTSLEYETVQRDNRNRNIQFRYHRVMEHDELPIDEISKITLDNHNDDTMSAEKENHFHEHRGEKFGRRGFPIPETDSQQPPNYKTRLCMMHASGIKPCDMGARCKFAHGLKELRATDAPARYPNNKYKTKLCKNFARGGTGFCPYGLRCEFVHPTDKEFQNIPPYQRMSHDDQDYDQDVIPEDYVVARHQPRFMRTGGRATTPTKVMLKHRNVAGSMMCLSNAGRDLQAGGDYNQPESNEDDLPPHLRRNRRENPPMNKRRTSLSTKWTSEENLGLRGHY
Briefly: MEX-5/TCR-2 RNA interaction inhibitors, dose response, biochemical, C. elegans, fluorescence polarization (AID 1960). In general terms: Polarisation of emitted light reports the rotation of a fluorescent probe.

In experiment [10] the target is T3, Sentrin-specific protease 1. Description: potency of human SENP1 inhibitors, dose response, biochemical, kinetic FRET (AID 651697). Particulars: read-out: IC50_Mean. Format: functional.
Experiment [11] deals with T5, RNA-binding protein pos-1 (Caenorhabditis elegans, UniProt G5EF15).
T5 sequence (G5EF15 whole entry): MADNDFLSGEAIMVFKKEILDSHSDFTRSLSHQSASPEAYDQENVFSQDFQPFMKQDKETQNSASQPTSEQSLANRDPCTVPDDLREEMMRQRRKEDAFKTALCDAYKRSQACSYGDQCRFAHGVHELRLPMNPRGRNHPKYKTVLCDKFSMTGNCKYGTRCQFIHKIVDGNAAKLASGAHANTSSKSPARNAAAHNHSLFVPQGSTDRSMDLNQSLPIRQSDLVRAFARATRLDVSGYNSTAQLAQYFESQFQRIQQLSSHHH
Briefly: inhibitors of POS-1/mex-3 RNA binding, dose response, biochemical, fluorescence polarization (AID 1964).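 Note: purified POS-1 fused to maltose binding protein made in E. coli; potency of compounds blocking POS-1 binding to fluorescent RNA.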

Experiment [12] has as its target Beta-lactamase (Pseudomonas aeruginosa, UniProt Q79MP6).
The target of experiment [13] is Beta-lactamase (Salmonella choleraesuis (strain SC-B67), UniProt Q5J463).
A short description of experiment [14]: Shn3 3'UTR reporter inhibitors, dose response, cell-based, Clone20 osteoblasts, firefly luciferase, cherry-picked (AID 624132).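 Note: firefly luciferase luminescence from reporter carrying the Shn3 3'UTR in osteoblasts.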 It is filed as functional.
The nature of experiment [15]: Fluorescence-based cell-based high throughput dose response assay for inhibitors of the interaction of nucleotide-binding oligomerization domain containing 2 (NOD2) and the receptor-interacting serine-threonine kinase 2 (RIPK2). Format: functional. The following applies: Homo sapiens.
Experiment [16] is described as follows: HepG2 cell cytotoxicity, dose response, cytotoxicity control for Shn3 inhibitor project, CellTiter-Glo, cherry-picked (AID 624134). Format: functional, cell-based.
Experiment [17] is described as follows: control 3'UTR Renilla luciferase suppression, dose response, counter-screen for Shn3 inhibitor project, cell-based, Clone20-Shn3RL, cherry-picked (AID 624133). It is filed as functional. A general note: A counterscreen serves to expose hits that act by an unwanted route or on another target.
Experiment [18] addresses Paired box protein Pax-8 (Homo sapiens, UniProt Q06710). Briefly: inhibitors of PAX8-driven TPO luciferase reporter, dose response, RMG-I cells, cherry-pick (AID 687027).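 Note: luciferase reporter driven by Pax8 target thyroperoxidase promoter measured by SteadyGlo luminescence.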 Format: functional, cell-based.
In experiment [19] the target is T6, Protein RecA (Mycobacterium tuberculosis, UniProt P9WHJ3).
T6 sequence (P9WHJ3 whole entry): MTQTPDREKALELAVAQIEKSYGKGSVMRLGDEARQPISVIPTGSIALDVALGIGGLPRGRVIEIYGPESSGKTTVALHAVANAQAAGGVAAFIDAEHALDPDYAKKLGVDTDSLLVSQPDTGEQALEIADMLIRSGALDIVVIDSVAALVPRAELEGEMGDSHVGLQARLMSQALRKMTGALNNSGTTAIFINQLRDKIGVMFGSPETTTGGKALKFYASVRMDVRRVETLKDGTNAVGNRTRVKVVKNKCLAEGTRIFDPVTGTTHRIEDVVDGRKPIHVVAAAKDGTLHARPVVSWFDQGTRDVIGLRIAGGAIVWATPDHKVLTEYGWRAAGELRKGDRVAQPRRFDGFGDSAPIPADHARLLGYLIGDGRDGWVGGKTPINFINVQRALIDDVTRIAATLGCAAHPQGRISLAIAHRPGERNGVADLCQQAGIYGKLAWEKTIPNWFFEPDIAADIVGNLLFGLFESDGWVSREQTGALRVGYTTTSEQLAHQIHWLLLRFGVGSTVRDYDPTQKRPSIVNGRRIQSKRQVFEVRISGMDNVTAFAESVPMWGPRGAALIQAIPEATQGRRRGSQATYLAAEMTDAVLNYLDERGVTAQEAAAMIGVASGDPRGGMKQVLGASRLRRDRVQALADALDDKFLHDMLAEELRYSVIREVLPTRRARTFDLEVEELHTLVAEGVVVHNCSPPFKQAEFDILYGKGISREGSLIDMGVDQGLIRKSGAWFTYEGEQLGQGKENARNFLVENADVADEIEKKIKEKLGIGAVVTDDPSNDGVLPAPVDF
Description: Fluorescence Cell-Free Homogeneous Dose Retest to Identify Inhibitors of RecA-Intein Splicing Activity. [Related pubchem assays (depositor defined):AID2097, AID2223, AID489010, AID492950]. Format: functional.

Experiment [20] deals with T7, Sentrin-specific protease 8 (Homo sapiens, UniProt Q96LD8).
T7 sequence (Q96LD8 whole entry): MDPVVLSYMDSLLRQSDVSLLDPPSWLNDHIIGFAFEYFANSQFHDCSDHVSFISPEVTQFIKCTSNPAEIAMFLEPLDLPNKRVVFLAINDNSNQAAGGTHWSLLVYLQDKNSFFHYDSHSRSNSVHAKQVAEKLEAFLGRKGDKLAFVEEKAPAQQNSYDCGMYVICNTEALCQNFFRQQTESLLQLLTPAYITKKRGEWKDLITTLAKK
Format: functional.

Experiment [21] deals with T7, Sentrin-specific protease 8. Format: functional. This is another data set of the same source.
The target of experiment [22] is T8, Replicative DNA helicase DnaB (Mycobacterium tuberculosis, UniProt P9WMR3).
T8 sequence (P9WMR3 whole entry): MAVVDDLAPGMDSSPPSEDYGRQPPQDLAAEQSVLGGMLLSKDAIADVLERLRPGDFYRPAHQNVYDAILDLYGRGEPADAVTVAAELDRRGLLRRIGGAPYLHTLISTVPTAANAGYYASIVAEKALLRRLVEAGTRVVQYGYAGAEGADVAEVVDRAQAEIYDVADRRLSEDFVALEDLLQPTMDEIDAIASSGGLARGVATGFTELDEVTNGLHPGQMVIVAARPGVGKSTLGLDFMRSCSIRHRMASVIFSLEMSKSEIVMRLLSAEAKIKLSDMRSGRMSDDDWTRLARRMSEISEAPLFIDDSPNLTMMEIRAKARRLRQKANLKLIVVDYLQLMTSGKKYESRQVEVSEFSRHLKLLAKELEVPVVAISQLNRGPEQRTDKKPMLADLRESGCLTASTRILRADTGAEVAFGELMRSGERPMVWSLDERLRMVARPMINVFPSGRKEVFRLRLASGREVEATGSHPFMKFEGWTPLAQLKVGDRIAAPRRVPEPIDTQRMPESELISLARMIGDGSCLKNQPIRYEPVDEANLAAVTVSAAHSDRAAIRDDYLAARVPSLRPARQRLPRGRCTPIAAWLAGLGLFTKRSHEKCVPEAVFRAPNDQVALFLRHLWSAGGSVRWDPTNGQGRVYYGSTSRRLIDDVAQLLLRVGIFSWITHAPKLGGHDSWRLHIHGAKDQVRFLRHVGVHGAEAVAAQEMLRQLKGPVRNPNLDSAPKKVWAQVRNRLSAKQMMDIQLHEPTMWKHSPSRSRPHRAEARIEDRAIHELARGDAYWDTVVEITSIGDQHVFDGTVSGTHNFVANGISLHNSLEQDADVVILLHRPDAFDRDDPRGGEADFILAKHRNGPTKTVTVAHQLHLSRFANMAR
Briefly: DnaB intein splicing inhibitors, dose response, biochemical, cell-free fluorescence (AID 449749). It is filed as functional.

T3 sequence (Q9P0U3 whole entry, the tested form may be a part): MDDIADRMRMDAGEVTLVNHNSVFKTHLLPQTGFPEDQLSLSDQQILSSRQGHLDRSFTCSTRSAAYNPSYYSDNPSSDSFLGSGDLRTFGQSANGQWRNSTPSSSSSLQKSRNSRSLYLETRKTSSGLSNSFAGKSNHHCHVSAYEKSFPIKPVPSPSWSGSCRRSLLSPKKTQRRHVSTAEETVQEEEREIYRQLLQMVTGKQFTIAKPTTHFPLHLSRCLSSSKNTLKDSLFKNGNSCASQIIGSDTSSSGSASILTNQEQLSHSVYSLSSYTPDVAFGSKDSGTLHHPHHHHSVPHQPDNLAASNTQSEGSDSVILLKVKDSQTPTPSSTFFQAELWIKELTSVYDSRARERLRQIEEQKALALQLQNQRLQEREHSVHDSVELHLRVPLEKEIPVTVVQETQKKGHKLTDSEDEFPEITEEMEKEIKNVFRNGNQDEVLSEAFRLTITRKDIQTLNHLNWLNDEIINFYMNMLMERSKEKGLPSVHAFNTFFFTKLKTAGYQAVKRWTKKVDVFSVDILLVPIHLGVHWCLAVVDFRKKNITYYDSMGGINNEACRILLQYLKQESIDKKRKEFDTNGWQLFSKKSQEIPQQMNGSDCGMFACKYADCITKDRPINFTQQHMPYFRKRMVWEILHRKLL
Chain of Paired box protein Pax-8 (Q06710 whole entry): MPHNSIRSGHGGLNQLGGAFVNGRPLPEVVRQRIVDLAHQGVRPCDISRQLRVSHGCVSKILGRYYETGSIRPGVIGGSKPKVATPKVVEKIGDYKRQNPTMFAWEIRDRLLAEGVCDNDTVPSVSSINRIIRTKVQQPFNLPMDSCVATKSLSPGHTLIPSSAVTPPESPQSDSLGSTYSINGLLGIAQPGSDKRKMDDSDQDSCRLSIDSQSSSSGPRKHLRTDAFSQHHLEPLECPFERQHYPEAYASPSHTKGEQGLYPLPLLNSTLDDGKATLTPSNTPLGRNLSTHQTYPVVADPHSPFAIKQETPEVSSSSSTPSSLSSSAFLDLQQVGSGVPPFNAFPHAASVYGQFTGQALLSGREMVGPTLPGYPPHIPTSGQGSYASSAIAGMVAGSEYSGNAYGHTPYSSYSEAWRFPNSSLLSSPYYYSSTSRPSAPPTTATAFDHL
Chain of Beta-lactamase (Pseudomonas aeruginosa, UniProt Q79MP6) (Q79MP6 whole entry): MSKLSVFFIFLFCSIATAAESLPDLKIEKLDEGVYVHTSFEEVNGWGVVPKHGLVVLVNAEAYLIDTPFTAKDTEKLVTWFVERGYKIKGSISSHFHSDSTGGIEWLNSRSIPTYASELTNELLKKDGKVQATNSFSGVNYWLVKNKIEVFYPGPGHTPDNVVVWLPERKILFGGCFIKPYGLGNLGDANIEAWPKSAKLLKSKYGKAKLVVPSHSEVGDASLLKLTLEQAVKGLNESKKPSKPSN
Chain of Beta-lactamase (Salmonella choleraesuis (strain SC-B67), UniProt Q5J463) (Q5J463 whole entry): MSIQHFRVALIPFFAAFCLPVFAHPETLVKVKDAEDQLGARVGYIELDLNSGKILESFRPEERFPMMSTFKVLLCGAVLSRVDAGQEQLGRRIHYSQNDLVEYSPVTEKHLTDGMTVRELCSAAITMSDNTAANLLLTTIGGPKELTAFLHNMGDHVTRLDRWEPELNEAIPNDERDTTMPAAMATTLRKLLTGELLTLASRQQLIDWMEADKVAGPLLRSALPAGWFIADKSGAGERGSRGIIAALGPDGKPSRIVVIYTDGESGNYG

The AC50 is the concentration giving half of the maximal activity seen. As to `CC(=O)Nc1cc(-c2cccc(C(=O)NCCN(C)C)c2)cn2c(-c3ccc(C(C)=O)cc3)cnc12`, the AC50 in [1] was 16.1 µM (active); in experiment [2], 31.8 µM (active); in experiment [3] it was 2.12 µM (active).

On to `Cc1cc(-c2ccccc2)n(-c2cc(N/N=C/c3ccccc3O)ncn2)n1`, for which the IC50 in [4] is 9.65 µM (active). Further, the AC50 was 0.703 µM (active) in [5] and 4.06 µM (active) in experiment [6]. The AbsAC35_uM in experiment [7] was determined as 52.65 µM.

Usually EC50 stands for the concentration giving half of the maximal effect. Turning to `COc1ccc2c(c1)c1nc3ccccc3nc1n2CCn1c(=O)oc2ccccc21`, the IC50 is 20.9 µM (inactive) in experiment [8] and 38.6 µM (inactive) in experiment [10]. Moreover, the EC50 in [9] and in experiment [11] was > 300 µM (inconclusive) each time.

As to `CCc1cc(=O)oc2cc(C)c(CN3CCCC3)c(O)c12`, the IC50 in [12] and in experiment [13] was > 59.6 µM (inactive) throughout.

`C=C1C(=O)[C@]23C[C@H]1CC[C@H]2[C@]1(C)[C@@H](OC(C)=O)CC[C@@](C)(C(=O)OC)[C@H]1C[C@@H]3OC(C)=O`: the AC50 in [14] is 5.99 µM (active); in experiment [16], 13.6 µM (active); in experiment [17] it was 5.01 µM (active); in experiment [18] it was 3.62 µM (active). Further, in experiment [15], the IC50 is 3.1 µM (active).

Regarding `COc1cc(C(c2c(C)n[nH]c2O)c2c(C)n[nH]c2O)ccc1OS(=O)(=O)c1ccccc1`, the EC50 in experiment [19] is 0.217 µM (active). Moreover, the IC50 in [20] is 45.2 µM (active); in experiment [21] it was 72.9 µM (inactive). In addition, in [22], the AC50 was 0.402 µM (active).
